This is an account of results in ChEMBL document CHEMBL1136029, “Inhibition of estrone sulfatase (ES) by derivatives of 4-[(aminosulfonyl)oxy] benzoic acid” (Bioorg Med Chem Lett, 2002).

The target of series [1] is T1, Steryl-sulfatase (Homo sapiens) (UniProt P08842).
T1 sequence (whole entry): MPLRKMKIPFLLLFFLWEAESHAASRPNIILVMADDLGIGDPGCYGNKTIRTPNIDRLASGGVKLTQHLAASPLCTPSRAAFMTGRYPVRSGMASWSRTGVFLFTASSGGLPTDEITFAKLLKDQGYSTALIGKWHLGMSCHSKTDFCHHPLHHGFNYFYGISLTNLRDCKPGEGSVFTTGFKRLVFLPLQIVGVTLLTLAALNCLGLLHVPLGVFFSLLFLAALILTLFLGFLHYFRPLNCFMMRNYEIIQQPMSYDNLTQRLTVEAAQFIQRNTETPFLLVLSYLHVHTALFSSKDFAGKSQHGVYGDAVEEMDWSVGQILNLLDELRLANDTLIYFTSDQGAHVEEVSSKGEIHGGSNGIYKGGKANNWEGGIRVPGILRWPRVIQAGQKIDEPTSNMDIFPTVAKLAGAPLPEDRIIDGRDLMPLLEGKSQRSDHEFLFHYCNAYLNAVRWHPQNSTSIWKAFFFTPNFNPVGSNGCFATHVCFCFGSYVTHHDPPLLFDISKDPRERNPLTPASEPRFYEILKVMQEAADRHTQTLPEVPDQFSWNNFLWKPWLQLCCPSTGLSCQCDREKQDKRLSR
Nature of the series: Compound was tested for the Inhibitory activity against the Estrone Sulfatase at a concentration of 50 uM.

Series [2] addresses T1, Steryl-sulfatase (Homo sapiens). Nature of the series: Compound was tested for the Inhibitory activity against the Estrone Sulfatase at a concentration of 10 uM.
Series [3] can be described thus: Dissociation constant determined by calculating its overall stability. It counts as physicochemical.
Series [4] addresses T2, Steryl-sulfatase (Homo sapiens, UniProt P08842).
T2 sequence (P08842 whole entry): T1 sequence (whole entry)
As to the kind of experiment: Inhibitory activity against Estrone Sulfatase.

Series [5] has as its target T2, Steryl-sulfatase. Nature of the series: Inhibitory activity against Estrone sulfatase was determined.
Series [6] addresses T1, Steryl-sulfatase (Homo sapiens). Nature of the series: Compound was tested for the Inhibitory activity against the Estrone sulfatase at a concentration of 10 uM.
Series [7] shares this target. Nature of the series: Compound was tested for the Inhibitory activity against the Estrone sulfatase at a concentration of 50 uM.

Take `CCCOC(=O)c1ccc(OS(N)(=O)=O)cc1`: the inhibition was 76.9% in series [1] and 42.6% in series [2]. Also, the pKa in series [3] is 8.03. This molecule also had an IC50 at Steryl-sulfatase [4] of 13.2 µM.
As to `CCCCOC(=O)c1ccc(OS(N)(=O)=O)cc1`, the inhibition in series [2] was 48.3%. In series [3], the pKa was 8.07. This molecule also returned an IC50 at Steryl-sulfatase [4] of 10.5 µM.
On to `C[C@]12CC[C@@H]3c4ccc(OS(N)(=O)=O)cc4CCC3[C@@H]1CCC2=O` (single isomer, unassigned), for which the inhibition in series [2] was 68.6%.
`CCCCCCCCCOC(=O)c1ccc(OS(N)(=O)=O)cc1`: the inhibition in series [1] turned out to be 76.2%. Moreover, the IC50 against Steryl-sulfatase [4] came out at 4.8 µM.
For the molecule `CCCCCCCCCCOC(=O)c1ccc(OS(N)(=O)=O)cc1`, the inhibition in series [2] stood at 36.5%. Besides, inhibition against Steryl-sulfatase [4] was half-maximal at 22.4 µM (IC50).
`COC(=O)c1ccc(OS(N)(=O)=O)cc1` had an IC50 at Steryl-sulfatase [5] of 31.6 µM. Besides, in series [3], the pKa was 8.28. In addition, the figures for the inhibition in series [6] and in series [7] were 25.4% and 74.7%, respectively.
With `CCCCCCOC(=O)c1ccc(OS(N)(=O)=O)cc1`, in series [2], the inhibition stood at 72.6%. For the same molecule, the pKa in series [3] was 8.52. For the same molecule, the IC50 against Steryl-sulfatase [4] amounted to 3.8 µM.
With `CCCCCCCOC(=O)c1ccc(OS(N)(=O)=O)cc1`, the inhibition in series [1] amounted to 83.7%; in series [2], 69.5%. The pKa in series [3] was 8.27. This molecule also yielded an IC50 against Steryl-sulfatase [4] of 3.4 µM.
With `CCCCCCCCOC(=O)c1ccc(OS(N)(=O)=O)cc1`, the inhibition in series [1] came to 80.4%; in series [2], 63%. Also, half-maximal inhibition against Steryl-sulfatase [4] (IC50) required 5 µM.
As to `CCOC(=O)c1ccc(OS(N)(=O)=O)cc1`, the inhibition in series [1] amounted to 63.4%; in series [2], 25.6%. For the same molecule, in series [3], the pKa was 8.22. The same molecule came in with an IC50 on Steryl-sulfatase [4] of 31.6 µM.
The matching figures for `CCCCCOC(=O)c1ccc(OS(N)(=O)=O)cc1`: 86.2%, 64.4%, 8.47 and 5.9 µM.
